Results published in a melting point compilation (Tetko et al.; mined from patent text by program, amines drawn as free bases though some values may be those of a salt).

With `CCN(CC)C(=O)Cc1c(-c2ccc(O)cc2)nn2c(C)cc(C)nc12` the melting point was 242 to 247 °C.
In the case of `CC1=NN=C(C=Cc2cccc(F)c2)c2cc3c(cc2C1)OCO3`, the melting point is reported as 161 to 162 °C.
In the case of `COCC#CC1=CC(C)(C)Oc2c(OC)cc(Cc3cnc(N)nc3N)cc21`, the melting point is reported as 236 to 237 °C.
In the case of `CC12CCC(C(=O)Nc3ccc(CC#N)cc3)(OC1=O)C2(C)C` (centres undefined), the melting point is reported as 147 to 152 °C.
`Nc1nc(-c2ccc(CCNC(=O)C(F)(F)F)cc2)cs1` showed a melting point of 180 to 182 °C.
`CN1CCC(OC2c3ccccc3CC(C)(C)n3cc(-c4ccccc4)nc32)CC1` (centres undefined) gave a melting point of 85 °C.
Work on `N#Cc1cc(Cl)cc2c1OC(C(F)(F)F)C(C(=O)O)=C2` (centres undefined) yielded a melting point of 238 to 240 °C.
Work on `O=C1CCC2=C1C(c1cc(Br)cs1)C1=C(CCS1)N2` (centres undefined) yielded a melting point of 254 to 255 °C.
In the case of `CC1(C)Cc2cccc(Oc3ccc(NC(=O)NC(=O)c4c(F)cccc4F)cc3Cl)c2O1`, the melting point is reported as 171 °C.
With `CC=CC(Oc1nc(OC)cc(OC)n1)C(C)(C)C#N` (centres undefined) the melting point was 91 to 92 °C.
`COC(=O)C1=C(C)Nc2ccccc2SC1c1ccc(OC)cc1` (centres undefined) showed a melting point of 107 to 110 °C.
`CON(Cc1ccc(F)c(F)c1)C(=O)C1=C(O)C(=O)N(C)C1` showed a melting point of 146 to 147 °C.
`COc1ccc(CN2CCC(c3cn(Cc4ccc(Cl)s4)c4cc(F)ccc34)CC2)cc1C(=O)O` showed a melting point of 232 to 236 °C.
With `C#CCN(c1nnc(C)c2ccccc12)c1nc2ccccc2n1-c1ccccc1` the melting point was 50 to 53 °C.
In the case of `COc1ccc(S(=O)(=O)c2ccccc2C(C)C)cc1`, the melting point is reported as 100 °C.
In the case of `N#Cc1cccc(CC(NC(=O)c2cc3cc(Cl)ccc3[nH]2)C(=O)N2CCSC2)c1` (centres undefined), the melting point is reported as 183 to 184 °C.
For `COc1ccc(S(=O)(=O)Nc2ccccc2Nc2ccccn2)cc1`, the melting point was 113 to 116 °C.
In the case of `O=S(=O)(CCl)Nc1ccc(F)cc1Cl`, the melting point is reported as 83 to 85 °C.
In the case of `COc1cc(C(=O)O)ccc1Cc1c(Cl)n(C)c2cc(Cl)c(CCNC(=O)N(C)C)cc12`, the melting point is reported as 207 °C.
With `Cc1nnc(NCCC2CCCN2C)c2cc3ccccn3c12` (centres undefined) the melting point was 169 °C.
Work on `CC(C)(C)NC(=O)COc1cc2c(cc1C#Cc1ccccc1)NC(=O)CC(c1cccc(C#N)c1)=N2` yielded a melting point of over 250 °C.
`CCCCc1nc(CO)c(C(=O)O)n1Cc1ccc(-c2ccccc2-c2nnn[nH]2)cc1` gave a melting point of 215 to 217 °C.
Molecule `CCN(C(=O)OC(C)(C)C)C1CC=C(c2c[nH]c3ccc(N)cc23)CC1` (centres undefined) has a melting point of 87 to 89 °C.
For `COc1cc2c(cc1C(F)(F)F)N(C(=O)Nc1cccc(C(=O)Nc3cccnc3)c1)CC2`, the melting point was over 220 °C.
For `CCCCN(c1cccc(-c2ccnc3c([N+](=O)[O-])cnn23)c1)S(C)(=O)=O`, the melting point was 153 to 155 °C.
In the case of `COc1ccc(C(=O)Nc2ccccc2/C=C/c2ccnc(C)c2)cc1`, the melting point is reported as 183 to 184 °C.
`CC(=O)Nc1ccc(C(=O)N2CC3CNCC(C3)C2)cc1` showed a melting point of 186 to 189 °C.
For `Cn1nc2c(N)nc3ccccc3c2c1CC(C)(C)O`, the melting point was 256 to 257 °C.
`Cc1ccc(N)cc1C(=O)O` showed a melting point of 142 to 144 °C.
Work on `CNc1ncc2c(-c3cccc(Cl)c3)cc(-c3ccc(C(=O)O)cc3)c(O)c2n1` yielded a melting point of 291 to 296 °C.
`Cc1cc(O)cnc1Cl` showed a melting point of 126 to 128 °C.
In the case of `CCOc1ccc(CCNC(=O)/C=C/c2cccs2)cc1S(=O)(=O)NC(=S)NC`, the melting point is reported as 74 °C.
`CS(=O)(=O)c1ccc(-c2sc(COc3cc(Cl)cc(Cl)c3)nc2-c2ccc(F)cc2)cc1` showed a melting point of 171 to 173 °C.
Molecule `CN(C)C(=O)C(C)(C)c1cc(C#N)ccc1O` has a melting point of 146 to 148 °C.
`O=C(Nc1nc(=O)c2cnn3c2n1CC=C3c1cccc(C(F)(F)F)c1)C(F)(F)F` gave a melting point of 184 to 185 °C.
With `O=C1c2cc(F)ccc2OC[C@H]2CCCN12` the melting point was 80 to 82 °C.
In the case of `Cc1cccc(-c2cn(C)cc(-c3cccc(C(F)(F)F)c3)c2=O)c1`, the melting point is reported as 155 to 157 °C.
Molecule `CNCc1ccc(C2CCN(c3c(F)c(N)c4c(=O)c(C(=O)O)cn(C5CC5)c4c3F)C2)cc1` (centres undefined) has a melting point of 201 to 205 °C.
For `Fc1ccc(CN(C(=S)Nc2ccccc2)C2CCCC2)cc1`, the melting point was 135 °C.
